In brackets after ≈: the same amount, converted by molar mass. Where no end group is shown, it is not given here.
B1: EB2-binding peptide identified via phage display, conjugated to the supported lipid bilayer of DOPC protocells (peptide)
peptide: TGAILHP
modifications: also: conjugated to protocell lipid bilayer, linker not described
notes: also called ephrin B2-targeting peptide; targeting peptide

Tests used:
alphaviruses = settings: cited from earlier work
[1] = in vivo; cited from earlier work
E. coli ER2420/pACYC177 = assay: microbe, parasite or virus in culture; format: cell-based; settings: Escherichia coli, test array/20-well test strips (FIG. 34, 35)
[2] = system: E. coli ER2420 with pACYC177 or pACYC184; format: cell-based
[3] = buffer; cited from earlier work
[4] = molecular target: T1, human ephrin B2 (EB2) expressed on cells (CHO-K1 transfected to express ephrin B2) (human, UniProt P52799 28-333); assay: fluorescence of labelled DOPC protocells modified with the ligand on ephrin B2-expressing cells, against unmodified DOPC protocells (FIGS. 3A-B)
T1 construct: whole, on cells; Cellular receptor for Nipah and Hendra viruses; also called CHO-K1/EB2; CHO-K1/ephrin B2
T1 sequence (P52799 28-333): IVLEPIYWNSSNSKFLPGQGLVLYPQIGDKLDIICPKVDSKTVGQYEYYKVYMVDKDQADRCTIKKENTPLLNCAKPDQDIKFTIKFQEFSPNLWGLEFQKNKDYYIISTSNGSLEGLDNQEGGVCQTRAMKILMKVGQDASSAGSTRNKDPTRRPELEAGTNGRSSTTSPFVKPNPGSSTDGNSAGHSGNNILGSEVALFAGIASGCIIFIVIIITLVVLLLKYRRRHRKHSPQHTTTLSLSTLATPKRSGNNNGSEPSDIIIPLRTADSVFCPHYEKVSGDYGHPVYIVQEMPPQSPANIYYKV

| Molecule | MIC (E. coli ER2420/pACYC177) [µg/mL] | killing action detected by delta-Ct for PMA treatment [2] | also measured |
| --- | --- | --- | --- |
| NC(=O)c1ncn([C@@H]2O[C@H](CO)[C@@H](O)[C@H]2O)n1 [Ribavirin] |  |  | IC50 values for several alphaviruses (alphaviruses): low micromolar range; circulation half-life [1]: < 48 h |
| CC1(C)S[C@@H]2[C@H](NC(=O)[C@H](N)c3ccc(O)cc3)C(=O)N2[C@H]1C(=O)O [amoxicillin] | > 128 | in the susceptible strain (pACYC184) and not in the resistant strain (pACYC177) | half-life in aqueous media/solution [3]: on the order of a few hours |
| CO/N=C(\C(=O)N[C@@H]1C(=O)N2C(C(=O)O)=C(COC(C)=O)CS[C@H]12)c1csc(N)n1 [cefotaxime] |  | in both strains |  |
| O=C(O)c1cn(C2CC2)c2cc(N3CCNCC3)c(F)cc2c1=O [ciprofloxacin] | < 0.031 | rapidly bactericidal to both E. coli at low concentrations |  |
| O=C(O)[C@H]1/C(=C/CO)O[C@@H]2CC(=O)N21 [clavulanic acid] |  |  | half-life in aqueous media/solution [3]: a few hours |
| NC[C@H]1O[C@H](O[C@H]2[C@H](O)[C@@H](O[C@H]3O[C@H](CO)[C@@H](O)[C@H](N)[C@H]3O)[C@H](N)C[C@@H]2N)[C@H](O)[C@@H](O)[C@@H]1O [kanamycin] | > 256 |  |  |
| CO[C@H]1/C=C/O[C@@]2(C)Oc3c(C)c(O)c4c(O)c(c(/C=N/N5CCN(C)CC5)c(O)c4c3C2=O)NC(=O)/C(C)=C\C=C\[C@H](C)[C@H](O)[C@@H](C)[C@@H](O)[C@@H](C)[C@H](OC(C)=O)[C@@H]1C [rifampicin] | 8 (≈ 9.72 µM) |  |  |
| B1 |  |  | fold increase in selective binding and internalization [4]: 100 fold |

Reference: patent US20190262469A1 (priority 2015, published 2019)
